Positions of bridges follow the written chain, without caps; N, C: chain ends. Non-standard residues stand in square brackets, D forms with d. Residues, ends and D or L forms follow the SMILES beside them. *: point of attachment. Phe(4-CONH2) = NC(=O)c1ccc(C[C@H](N)C(=O)O)cc1; Phe(4-COOH) = N[C@@H](Cc1ccc(C(=O)O)cc1)C(=O)O; Bip = N[C@@H](Cc1ccc(-c2ccccc2)cc1)C(=O)O; dPro(4S-NH2) = N[C@@H]1CN[C@@H](C(=O)O)C1; Phe(3-Me) = Cc1cccc(C[C@H](N)C(=O)O)c1; Val(3-OH) = CC(C)(O)[C@H](N)C(=O)O; 4Pal = N[C@@H](Cc1ccncc1)C(=O)O; Cha = N[C@@H](CC1CCCCC1)C(=O)O; Carboxymethyl = O=C(O)C*; NMeA = CN[C@@H](C)C(=O)O; Dab = NCC[C@H](N)C(=O)O; Sar = CNCC(=O)O
Target: T1, human PD-1 (Jurkat-PD-1 cells) / PE-labeled human PD-L1-Ig (Homo sapiens, UniProt Q15116)
T1 construct: expressed in transfected cells; host or cells: Jurkat cell line over-expressing human PD-1
Experiment: Jurkat-PD-1 Cell Binding High-Content Screening Assay (CBA); Jurkat hPD1-PDL1 assay
Conditions: Jurkat cell line over-expressing human PD-1; PE-labeled PD-L1-Ig 20 nM final; compound incubated 2 hours at 37° C.; read-out: Jurkat HPD1-PDL1 IC50
Summary of the method: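 Jurkat-hPD-1 cells; cpd 2 h, 37° C; then PE-PD-L1-Ig 20 nM final in DMEM/10% FCS; high-content imaging read-out.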

T1 sequence (Q15116 25-288): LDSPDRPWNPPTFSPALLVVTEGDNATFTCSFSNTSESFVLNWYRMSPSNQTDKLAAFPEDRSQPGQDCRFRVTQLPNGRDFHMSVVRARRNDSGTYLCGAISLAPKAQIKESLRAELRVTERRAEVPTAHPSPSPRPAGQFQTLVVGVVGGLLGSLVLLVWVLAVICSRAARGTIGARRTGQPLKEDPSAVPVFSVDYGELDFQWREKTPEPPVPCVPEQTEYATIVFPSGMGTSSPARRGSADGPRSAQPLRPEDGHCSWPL

Structure (SMILES)	IC50
CC(C)C[C@@H]1NC(=O)[C@H](Cc2c[nH]c3ccccc23)NC(=O)[C@H](CC(=O)O)NC(=O)[C@H](Cc2ccc(O)cc2)NC(=O)[C@H](Cc2ccccc2)NC(=O)CSC[C@@H](C(=O)N[C@@H](CO)C(N)=O)NC(=O)[C@H](CO)NC(=O)[C@H](C(C)C)NC(=O)[C@H](CC(C)C)NC(=O)[C@H](CC(N)=O)NC(=O)CN(C)C(=O)[C@H](C)N(C)C(=O)[C@H](C(C)C)NC(=O)[C@H](Cc2ccc(-c3ccccc3)cc2)NC1=O [Example 1173] ({CH2CO}-FYDWL[Bip]V[NMeA][Sar]NLVSCS-NH2; thioether N-14)	950 nM
CC(C)C[C@@H]1NC(=O)[C@H](Cc2c[nH]c3ccccc23)NC(=O)[C@H](CC(=O)O)NC(=O)[C@H](Cc2ccc(O)cc2)NC(=O)[C@H](Cc2ccc(C(N)=O)cc2)NC(=O)CSC[C@@H](C(=O)NCC(N)=O)NC(=O)[C@H](CO)NC(=O)[C@H](C(C)C)NC(=O)[C@H](CC(C)C)NC(=O)[C@H](CC(N)=O)NC(=O)CN(C)C(=O)[C@H](C)N(C)C(=O)[C@H](C(C)C)NC(=O)[C@H](Cc2ccc(-c3ccccc3)cc2)NC1=O [Example 1174] ({CH2CO}-[Phe(4-CONH2)]YDWL[Bip]V[NMeA][Sar]NLVSCG-NH2; thioether N-14)	970 nM
CC(C)C[C@@H]1NC(=O)[C@H](Cc2c[nH]c3ccccc23)NC(=O)[C@H](CC(=O)O)NC(=O)[C@H](Cc2ccc(O)cc2)NC(=O)[C@H](Cc2ccccc2)NC(=O)CSC[C@@H](C(=O)N[C@@H](C)C(N)=O)NC(=O)[C@H](CO)NC(=O)[C@H](C(C)C)NC(=O)[C@H](CC(C)C)NC(=O)[C@H](CC(N)=O)NC(=O)[C@H]2C[C@H](N)CN2C(=O)[C@H]2CCCN2C(=O)[C@H](C(C)C)NC(=O)[C@H](Cc2ccc(-c3ccccc3)cc2)NC1=O [Example 1175] ({CH2CO}-FYDWL[Bip]V[dP][dPro(4S-NH2)]NLVSCA-NH2; thioether N-14)	500 nM

These reach a lower IC50. Values come first.

IC50	Structure (SMILES)
240 nM	CC(C)C[C@@H]1NC(=O)[C@H](Cc2c[nH]c3ccccc23)NC(=O)[C@H](CC(=O)O)NC(=O)[C@H](Cc2ccc(O)cc2)NC(=O)[C@H](Cc2ccccc2)NC(=O)CSC[C@@H](C(=O)N[C@@H](C)C(N)=O)NC(=O)[C@H](CO)NC(=O)[C@H](C(C)C)NC(=O)[C@H](CC(C)C)NC(=O)[C@H](CCC(=O)O)NC(=O)[C@H]2CCCN2C(=O)[C@H](C)N(C)C(=O)[C@H](CCC(=O)O)NC(=O)[C@H](Cc2ccc(-c3ccccc3)cc2)NC1=O [Example 1177] ({CH2CO}-FYDWL[Bip]E[NMeA][dP]ELVSCA-NH2; thioether N-14)
70 nM	Cc1cccc(C[C@@H]2NC(=O)[C@H](CC(=O)O)NC(=O)[C@H](Cc3ccc(OCC(=O)O)cc3)NC(=O)[C@H](Cc3ccncc3)NC(=O)CSC[C@@H](C(=O)N[C@@H](CCN)C(N)=O)NC(=O)[C@H](CO)NC(=O)[C@H](C(C)(C)O)NC(=O)[C@H](CC3CCCCC3)NC(=O)[C@H](CCN)NC(=O)[C@H]3CCCN3C(=O)[C@H](C)N(C)C(=O)[C@H](Cc3ccc(OCC(=O)O)cc3)NC(=O)[C@H](Cc3ccc(-c4ccccc4)cc3)NC(=O)[C@H](Cc3ccc(C(=O)O)cc3)NC2=O)c1 [Example 1178] ({CH2CO}-[4Pal]Y(Carboxymethyl)D[Phe(3-Me)][Phe(4-COOH)][Bip]Y(Carboxymethyl)[NMeA][dP][Dab][Cha][Val(3-OH)]SC[Dab]-NH2; thioether N-14)
80 nM	Cc1cccc(C[C@@H]2NC(=O)[C@H](CC(=O)O)NC(=O)[C@H](Cc3ccc(OCC(=O)O)cc3)NC(=O)[C@H](Cc3ccncc3)NC(=O)CSC[C@@H](C(=O)N[C@@H](CCN)C(N)=O)NC(=O)[C@H](CO)NC(=O)[C@H](C(C)(C)O)NC(=O)[C@H](CC3CCCCC3)NC(=O)[C@H](CCN)NC(=O)[C@H]3CCCN3C(=O)[C@H](C)N(C)C(=O)[C@H](Cc3ccc(OCC(=O)O)cc3)NC(=O)[C@H](Cc3ccc(-c4ccccc4)cc3)NC(=O)[C@H](Cc3ccc(OCC(=O)O)cc3)NC2=O)c1 [Example 1179] ({CH2CO}-[4Pal]Y(Carboxymethyl)D[Phe(3-Me)]Y(Carboxymethyl)[Bip]Y(Carboxymethyl)[NMeA][dP][Dab][Cha][Val(3-OH)]SC[Dab]-NH2; thioether N-14)
